One experiment relates to HIV-1 LTR. Briefly: RNase protection assay of pLTR-FF transcripts (elongation, RNA stability). It counts as cell-based. Here is the method: RPA was performed with 10 μg of cytoplasmic RNA and 5 μg of nuclear RNA, using the RPAIII kit from Ambion (Austin, Tex.) according to the manufacturer's instructions. Synthesis of radiolabeled RNA and protection assays were performed as described in Young et al. Mol Cell Biol 2003, 23:6373-6384. To generate antisense RNA probe against the HIV-1 major splice site, firefly luciferase and Renilla luciferase pBSII-KS+HIV (+80-341), pSP-luc and pSP-rluc were linearized with HindIII, XbaI and BsaI, respectively. The resulting probes were 309, 390 and 245 nt long, respectively. […]
Results of the deletion analysis implied that sensitivity to the drugs is conferred by the promoter or another feature in the HIV-1 LTR. […] Nuclear and cytoplasmic RNA was analyzed in RNase protection assays using a probe complementary to the promoter-proximal region of HIV transcripts (FIG. 6A). […]
To examine the possibility that the drugs decrease the stability of RNA transcribed from the HIV promoter, cells transfected with pLTR-FF were incubated in the presence or absence of CPX. Actinomycin D was added to some cultures 12 hr later to block further transcription, and FF RNA was monitored by RPA at intervals thereafter (FIG. 6D, top panel). FF RNA levels were quantified and normalized to the levels at 12 hr (FIG. 6D, bottom panel). […]

In the next experiment the test system is HIV-infected PBMCs. Briefly: TUNEL apoptosis in HIV-1 exposed PBMC cultures. The settings on record: CPX 30 μM. Format: cell-based, human. The method, then: (§1) Uninfected PBMCs were co-incubated with infected PBMC stock in 24-well microplates at 2 ml/well Medium B, at a 10:1 ratio of uninfected-to-infected cells, and a total cell number of 1×10^6. Cultures were maintained and assayed for 6 consecutive days. CPX or Agent P2 was added at the time of inoculation or 12 hr later. Leaving the cell layer undisturbed, half the medium in each well was replenished every day, with concurrent adjustment of compound concentration. On each day during the 6-day experiments, a set of wells was harvested: the cells were processed for determination of viability and apoptosis, and the cell-free supernatants were stored at −80° C. for p24 and viral RNA measurements. […]
(§2) The potential across the mitochondrial membrane of live cells was determined flow-cytometrically with the lipophilic cationic fluorochrome JC-1 (5,5′,6,6′-tetrachloro-1,1′,3,3′-tetraethylbenzimidazolcarbocyanine iodide) immediately after sample harvest (BD™ Mitoscreen Kit, BD Biosciences; San Diego, Calif.). DNA fragmentation was quantified flow-cytometrically, using a TUNEL (terminal deoxynucleotide transferase dUTP nick end-labeling) assay (APO-BRDU™; Phoenix Flow Systems; San Diego, Calif.) and a dual-color assay for annexin V binding and 7-AAD exclusion (Annexin V-PE 7-AAD Apoptosis Detection Kit I™; BD Biosciences Pharmingen, San Jose, Calif.). […]

The next experiment concerns uninfected PBMCs. Briefly: TUNEL apoptosis in uninfected PBMC cultures. It counts as cell-based, human. The settings on record: CPX 30 μM. The method, then: as §1, §2

The structures appear in SMILES notation.

On to `Cc1cc(C2CCCCC2)n(O)c(=O)c1` [CPX, 6-cyclohexyl-1-hydroxy-4-methylpyridin-2[1H]-one], for which the “rate of FF RNA decay” value in the experiment on HIV-1 LTR (actinomycin D added at 12 hr) was “not affected”. Besides, the “FF mRNA level at 12 hr post-transfection, less than control” value in the experiment with HIV-1 LTR (in the presence of CPX) is about 50%. For the same molecule, the “apoptotic (TUNEL-positive) cells” value with HIV-infected PBMCs (144 hr after inoculation) was 71.8% (±8.8%); in the experiment on uninfected PBMCs (144 hr), 24.1% (±3.2%). In the experiment on HIV-infected PBMCs (HIV-infected cultures), the “increase in proportion of TUNEL-positive PBMCs” value was about 10 fold. In the experiment on uninfected PBMCs (uninfected cultures), the “change in proportion of TUNEL-positive PBMCs” value is “roughly doubled”.

The values above are taken from patent US20120225093A1, “Abrogating HIV-1 Infection via Drug-Induced Reactivation of Apoptosis” (UNIVERSITY OF MEDICINE AND DENTISTRY OF NEW JERSEY, priority 2010, published 2012).
